Test results as given in patent US12129490B2, “Methods for generating hepatocytes and cholangiocytes from pluripotent stem cells” (UNIVERSITY HEALTH NETWORK, priority 2018, dated 2024).

Legend:
CYP2B6 = target: T1, CYP2B6 (Homo sapiens, UniProt P20813); experiment: CYP2B6 activity, hydroxylation of bupropion by HPLC; assay type: in vitro ADME; conditions: 8-Br-cAMP-treated cells versus primary hepatocytes
T1 sequence (P20813 1-491): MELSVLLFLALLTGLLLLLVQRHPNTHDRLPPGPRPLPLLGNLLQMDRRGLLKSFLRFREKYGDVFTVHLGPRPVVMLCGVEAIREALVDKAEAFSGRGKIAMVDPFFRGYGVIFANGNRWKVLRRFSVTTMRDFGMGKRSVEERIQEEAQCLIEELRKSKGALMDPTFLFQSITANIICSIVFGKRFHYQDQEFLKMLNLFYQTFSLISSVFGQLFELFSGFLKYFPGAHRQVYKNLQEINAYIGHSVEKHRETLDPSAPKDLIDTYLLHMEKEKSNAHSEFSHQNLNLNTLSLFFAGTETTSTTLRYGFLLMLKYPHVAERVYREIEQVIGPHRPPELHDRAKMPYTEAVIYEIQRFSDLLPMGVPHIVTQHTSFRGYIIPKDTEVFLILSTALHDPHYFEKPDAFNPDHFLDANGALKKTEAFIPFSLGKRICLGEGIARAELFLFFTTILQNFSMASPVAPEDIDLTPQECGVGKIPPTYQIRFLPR
Method: Formation of the metabolite O-hydroxy-bupropion from bupropion was measured by HPLC. Activity is presented per 50,000 cells, (n=3).

CYP1A2 = target: T2, CYP1A2 (Homo sapiens, UniProt P05177); experiment: CYP1A2 activity, phenacetin metabolism by HPLC; conditions: 8-Br-cAMP-treated cells versus primary cultured hepatocytes
T2 sequence (P05177 1-516): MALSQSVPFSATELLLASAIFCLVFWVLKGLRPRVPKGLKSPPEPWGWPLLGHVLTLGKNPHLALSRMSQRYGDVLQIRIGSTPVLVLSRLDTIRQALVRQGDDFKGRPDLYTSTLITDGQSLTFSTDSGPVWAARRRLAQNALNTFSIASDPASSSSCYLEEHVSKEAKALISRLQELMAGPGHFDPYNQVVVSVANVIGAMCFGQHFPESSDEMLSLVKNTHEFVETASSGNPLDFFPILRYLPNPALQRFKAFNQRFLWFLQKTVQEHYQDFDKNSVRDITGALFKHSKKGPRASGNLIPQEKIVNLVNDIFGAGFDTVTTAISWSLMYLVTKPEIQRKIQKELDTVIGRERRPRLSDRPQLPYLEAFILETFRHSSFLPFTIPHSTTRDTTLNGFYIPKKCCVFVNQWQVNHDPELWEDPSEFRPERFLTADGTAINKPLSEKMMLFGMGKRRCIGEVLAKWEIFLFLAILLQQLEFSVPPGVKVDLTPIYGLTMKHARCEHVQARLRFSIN

## Nc1ncnc2c1nc(Br)n2[C@@H]1O[C@@H]2COP(=O)(O)O[C@H]2[C@H]1O [8-Br-cAMP, 8-bromoadenosine-3′5″-cyclic monophosphate]
CYP2B6
  CYP2B6 activity, hydroxylation of bupropion: comparable to those found in primary hepatocytes
CYP1A2
  O-deethylation of phenacetin (CYP1A2 activity): as high as primary cultured hepatocytes
